In patent US20250368627A1, “PYRAZOLESULFONAMIDES AS ANTITUMOR AGENTS” (Peloton Therapeutics, Inc., a fully owned subsidiary of …, priority 2019, published 2025) one finds IC50 and EC50 data, which are given here for 31 compounds.

The structures appear in SMILES notation. pEC50, pIC50: −log10 of the molar value.

Test [1] addresses T1, DDB1DB/DCAF15 and RBM39 R1R2 complex (Homo sapiens, UniProt Q14498+Q66K64).
T1 construct: Amino acids 150 to 331 of RBM39 were cloned into pGEX4T3; GST (from vector pGEX4T3); TEV cleavage site (N); made in house; host or cells: DDB1DB/His-DCAF15: baculovirus/Sf9 co-expression; RBM39 R1R2: E. coli (pGEX4T3)
Briefly: DCAF15 RBM39 Complex Formation Assay (FRET). Type of test: binding. To be noted: FRET ratio Em 665/Em 615, incubated overnight at 4° C. The method in brief:
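Ternary complex formation read by TR-FRET (Em 665/615, excitation 340 nm) after overnight incubation at 4° C of 20 nM baculovirus DDB1DB/His-DCAF15 and 50 nM E. coli RBM39 RRM1-RRM2 FLAG fragment with 14-point, 3-fold compound dilutions from 1 μM; EC50 from 4-parameter fit.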

The subject of test [2] is HCT116 human colorectal carcinoma cells. In words: CellTiter-Glo Luminescent Cell Viability Assay. Type of test: cell-based. To be noted: HCT-116, 72 h, 3 days. In a few lines:
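CellTiter-Glo luminescence gave viability after 3 days of compound exposure in HCT116 cells grown in DMEM/10% FBS. Final concentrations ran from 5 to 0.0002 […] in 1:3 steps, each in triplicate, with IC50 derived from the curves.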
For orientation: ATP-based viability assays read luminescence as a measure of living cells.

T1 sequence (Q66K64 whole entry, the tested form may be a part): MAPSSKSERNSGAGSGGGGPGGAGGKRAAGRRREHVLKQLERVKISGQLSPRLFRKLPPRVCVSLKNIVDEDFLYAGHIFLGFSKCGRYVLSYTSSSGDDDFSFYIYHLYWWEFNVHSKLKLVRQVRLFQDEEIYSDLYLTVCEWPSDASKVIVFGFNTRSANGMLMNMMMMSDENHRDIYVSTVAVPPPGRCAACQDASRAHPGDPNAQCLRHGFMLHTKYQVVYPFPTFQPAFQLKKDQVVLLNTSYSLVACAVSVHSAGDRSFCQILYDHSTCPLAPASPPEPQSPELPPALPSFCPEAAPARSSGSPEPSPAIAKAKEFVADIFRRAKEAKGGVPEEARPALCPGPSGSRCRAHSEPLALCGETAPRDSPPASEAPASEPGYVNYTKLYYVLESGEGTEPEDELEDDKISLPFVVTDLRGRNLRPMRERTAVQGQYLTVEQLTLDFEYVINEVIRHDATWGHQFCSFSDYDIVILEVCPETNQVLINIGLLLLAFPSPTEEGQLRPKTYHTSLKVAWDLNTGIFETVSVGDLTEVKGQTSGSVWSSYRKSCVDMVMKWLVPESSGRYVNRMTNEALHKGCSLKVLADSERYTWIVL
T1 sequence (Q14498 150-331): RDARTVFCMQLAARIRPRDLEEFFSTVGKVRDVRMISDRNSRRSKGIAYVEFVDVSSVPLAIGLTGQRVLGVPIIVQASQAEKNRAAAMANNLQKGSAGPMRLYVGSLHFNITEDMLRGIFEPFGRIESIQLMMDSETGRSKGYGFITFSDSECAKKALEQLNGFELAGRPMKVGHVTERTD
T1 sequence (Q16531 with tags, fused parts or gaps DEL396-708 partner): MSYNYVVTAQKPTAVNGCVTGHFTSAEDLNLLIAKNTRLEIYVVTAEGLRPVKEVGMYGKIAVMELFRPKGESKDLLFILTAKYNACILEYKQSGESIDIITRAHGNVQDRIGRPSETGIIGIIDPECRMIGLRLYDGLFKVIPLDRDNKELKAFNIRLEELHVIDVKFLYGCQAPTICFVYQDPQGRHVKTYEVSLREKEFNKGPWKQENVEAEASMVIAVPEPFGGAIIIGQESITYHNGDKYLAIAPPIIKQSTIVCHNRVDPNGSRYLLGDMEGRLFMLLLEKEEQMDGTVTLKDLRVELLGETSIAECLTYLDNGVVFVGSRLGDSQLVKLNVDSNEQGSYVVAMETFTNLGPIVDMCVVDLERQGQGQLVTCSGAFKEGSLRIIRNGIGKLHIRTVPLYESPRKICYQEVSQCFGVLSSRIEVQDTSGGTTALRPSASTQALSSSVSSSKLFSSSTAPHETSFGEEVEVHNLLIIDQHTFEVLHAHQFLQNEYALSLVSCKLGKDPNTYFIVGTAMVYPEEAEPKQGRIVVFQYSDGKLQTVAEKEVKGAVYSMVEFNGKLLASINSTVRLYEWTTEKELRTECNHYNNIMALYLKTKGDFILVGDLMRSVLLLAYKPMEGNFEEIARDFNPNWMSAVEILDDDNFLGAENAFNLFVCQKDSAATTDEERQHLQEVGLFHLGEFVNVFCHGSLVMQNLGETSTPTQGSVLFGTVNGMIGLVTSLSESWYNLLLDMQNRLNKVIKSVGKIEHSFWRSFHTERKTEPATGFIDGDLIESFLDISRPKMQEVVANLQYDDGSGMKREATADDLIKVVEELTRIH

As for `N#Cc1c[nH]c2c(NS(=O)(=O)c3cnn(C4(CO)COC4)c3)ccc(Cl)c12` [Compound 165, N-(4-chloro-3-cyano-1H-indol-7-yl)-1-[3-(hydroxymethyl)oxetan-3-yl]pyrazole-4-sulfonamide], the negative logarithm of the IC50 (pIC50) (in general, the negative decadic logarithm of the IC50, by convention in mol/L) in test [1] was above 6.60. Also, the pEC50 (usually the EC50 on a negative log10 scale, so that one unit is a factor of ten) in test [2] was 6.00 to 6.60.

With `N#Cc1c[nH]c2c(NS(=O)(=O)c3cnn(C45CC(C4)C5)c3)ccc(Cl)c12` [Compound 223, 1-(3-bicyclo[1.1.1]pentanyl)-N-(4-chloro-3-cyano-1H-indol-7-yl)pyrazole-4-sulfonamide], in test [1], the pIC50 is above 6.60. Further, the pEC50 in test [2] was 6.00 to 6.60.

In the case of `CC(C)(CO)n1cc(S(=O)(=O)Nc2cccc3c(C#N)c[nH]c23)cn1` [Compound 235, N-(3-cyano-1H-indol-7-yl)-1-(2-hydroxy-1,1-dimethyl-ethyl)pyrazole-4-sulfonamide], the negative logarithm of the IC50 (pIC50) in test [1] was above 6.60. For the same compound, the pEC50 in test [2] is 6.00 to 6.60.

As for `C[C@@H](O)Cn1cc(S(=O)(=O)Nc2ccc(Cl)c3c(C#N)c[nH]c23)cn1` [Compound 197, N-(4-chloro-3-cyano-1H-indol-7-yl)-1-[(2R)-2-hydroxypropyl]pyrazole-4-sulfonamide], the pIC50 in test [1] is above 6.60. The pEC50 in test [2] was 6.00 to 6.60.

In the case of `CC(C)(CO)n1cc(S(=O)(=O)Nc2cccc3c(C#N)c[nH]c23)c(Cl)n1` [Compound 253, 3-chloro-N-(3-cyano-1H-indol-7-yl)-1-(2-hydroxy-1,1-dimethyl-ethyl)pyrazole-4-sulfonamide], the pIC50 in test [1] was above 6.60. Further, the pEC50 in test [2] was below 6.00.

Take `N#Cc1c[nH]c2c(NS(=O)(=O)c3c[nH]nc3N)ccc(Cl)c12` [Compound 296, 3-amino-N-(4-chloro-3-cyano-1H-indol-7-yl)-1H-pyrazole-4-sulfonamide]: the pIC50 in test [1] was above 6.60. Besides, the negative logarithm of the EC50 (pEC50) in test [2] is below 6.00.

`Cc1ccc(NS(=O)(=O)c2cnn(CC(C)(C)C#N)c2)c2[nH]cc(C#N)c12` [Compound 76, N-(3-cyano-4-methyl-1H-indol-7-yl)-1-(2-cyano-2-methyl-propyl)pyrazole-4-sulfonamide]: the pIC50 in test [1] was above 6.60. Moreover, the pEC50 in test [2] was 6.00 to 6.60.

For the compound `O=S(=O)(Nc1ccc(Cl)c2c(Cl)c[nH]c12)c1cnn(C2COC2)c1` [Compound 143, N-(3,4-dichloro-1H-indol-7-yl)-1-(oxetan-3-yl)pyrazole-4-sulfonamide], the negative logarithm of the IC50 (pIC50) in test [1] was above 6.60. In addition, the negative-log EC50 (pEC50) in test [2] is above 6.60.

As for `CC1(Cn2cc(S(=O)(=O)Nc3cccc4c(Cl)c[nH]c34)cn2)COC1` [Compound 28, N-(3-chloro-1H-indol-7-yl)-1-[(3-methyloxetan-3-yl)methyl]pyrazole-4-sulfonamide], in test [1], the pIC50 was above 6.60. Further, the negative logarithm of the EC50 (pEC50) in test [2] is 6.00 to 6.60.

Take `N#CCn1cc(S(=O)(=O)Nc2cccc3c(Cl)c[nH]c23)cn1` [Compound 14, N-(3-chloro-1H-indol-7-yl)-1-(cyanomethyl)pyrazole-4-sulfonamide]: the negative-log IC50 (pIC50) in test [1] was above 6.60. Further, the negative-log EC50 (pEC50) in test [2] was below 6.00.

Consider `N#Cc1c[nH]c2c(NS(=O)(=O)c3cnn(C(F)F)c3N)ccc(F)c12` [Compound 285, 5-amino-N-(3-cyano-4-fluoro-1H-indol-7-yl)-1-(difluoromethyl)pyrazole-4-sulfonamide], for which the pIC50 in test [1] is above 6.60. The pEC50 in test [2] is 6.00 to 6.60.

For `CC(C)(C(N)=O)n1cc(S(=O)(=O)Nc2ccc(F)c3c(C#N)c[nH]c23)cn1` [Compound 240, 2-[4-[(3-cyano-4-fluoro-1H-indol-7-yl)sulfamoyl]pyrazol-1-yl]-2-methyl-propanamide], the negative logarithm of the IC50 (pIC50) in test [1] was above 6.60. Moreover, the pEC50 in test [2] was below 6.00.

Consider `CS(=O)(=O)Cn1cc(S(=O)(=O)Nc2ccc(Cl)c3c(C#N)c[nH]c23)cn1` [Compound 182, N-(4-chloro-3-cyano-1H-indol-7-yl)-1-(methylsulfonylmethyl)pyrazole-4-sulfonamide], for which the pIC50 in test [1] is above 6.60. Further, the pEC50 in test [2] was 6.00 to 6.60.

Consider `Cc1ccc(NS(=O)(=O)c2cnn([C@H](C)CO)c2)c2[nH]cc(C#N)c12` [Compound 207, (R)—N-(3-cyano-4-methyl-1H-indol-7-yl)-1-(1-hydroxypropan-2-yl)-1H-pyrazole-4-sulfonamide], for which the negative logarithm of the IC50 (pIC50) in test [1] is above 6.60. Moreover, the pEC50 in test [2] was above 6.60.

Turning to `Cc1ccc(NS(=O)(=O)c2cnn([C@H](C)CF)c2)c2[nH]cc(C#N)c12` [Compound 281, N-(3-cyano-4-methyl-1H-indol-7-yl)-1-[(1R)-2-fluoro-1-methyl-ethyl]pyrazole-4-sulfonamide], the negative logarithm of the IC50 (pIC50) in test [1] was above 6.60. In test [2], the negative logarithm of the EC50 (pEC50) was above 6.60.

As for `N#Cc1c[nH]c2c(NS(=O)(=O)c3cnn(C4(CO)CC4)c3)ccc(Cl)c12` [Compound 269, N-(4-chloro-3-cyano-1H-indol-7-yl)-1-[1-(hydroxymethyl)cyclopropyl]pyrazole-4-sulfonamide], the negative-log IC50 (pIC50) in test [1] was above 6.60. Moreover, in test [2], the pEC50 was 6.00 to 6.60.

Consider `CC(C)(CO)n1cc(S(=O)(=O)Nc2ccc(Cl)c3c(C#N)c[nH]c23)c(Cl)n1` [Compound 260, 3-chloro-N-(4-chloro-3-cyano-1H-indol-7-yl)-1-(2-hydroxy-1,1-dimethyl-ethyl)pyrazole-4-sulfonamide], for which the pIC50 in test [1] is above 6.60. The pEC50 in test [2] was below 6.00.

On to `Cc1ccc(NS(=O)(=O)c2cnn(CCCO)c2)c2[nH]cc(C#N)c12` [Compound 210, N-(3-cyano-4-methyl-1H-indol-7-yl)-1-(3-hydroxypropyl)pyrazole-4-sulfonamide], for which the pIC50 in test [1] was above 6.60. For the same compound, the negative-log EC50 (pEC50) in test [2] was 6.00 to 6.60.

For `Cc1nn(C)cc1S(=O)(=O)Nc1ccc(C)c2c(C#N)c[nH]c12` [Compound 114, N-(3-cyano-4-methyl-1H-indol-7-yl)-1,3-dimethyl-pyrazole-4-sulfonamide], in test [1], the pIC50 is above 6.60. Moreover, in test [2], the pEC50 is 6.00 to 6.60.

For the compound `Cc1ccc(NS(=O)(=O)c2cnn(C(C)(C)C(N)=O)c2)c2[nH]cc(C#N)c12` [Compound 241, 2-[4-[(3-cyano-4-methyl-1H-indol-7-yl)sulfamoyl]pyrazol-1-yl]-2-methyl-propanamide], the pIC50 in test [1] was above 6.60. Moreover, the pEC50 in test [2] is 6.00 to 6.60.

As to `CC(C)(C)OC(=O)NCCn1cc(S(=O)(=O)Nc2cccc3c(Cl)c[nH]c23)cn1` [Compound 33, tert-butyl N-[2-[4-[(3-chloro-1H-indol-7-yl)sulfamoyl]pyrazol-1-yl]ethyl]carbamate], the pIC50 in test [1] was 6.00 to 6.60. For the same compound, the pEC50 in test [2] is below 6.00.

For the compound `Cc1ccc(NS(=O)(=O)c2cnn(C[C@@H](C)CO)c2)c2[nH]cc(C#N)c12` [Compound 264, N-(3-cyano-4-methyl-1H-indol-7-yl)-1-[(2R)-3-hydroxy-2-methyl-propyl]pyrazole-4-sulfonamide], in test [1], the negative-log IC50 (pIC50) is above 6.60. The pEC50 in test [2] is above 6.60.

Take `CC1(Cn2cc(S(=O)(=O)Nc3cccc4c(Cl)c[nH]c34)cn2)CS(=O)(=O)C1` [Compound 45, N-(3-chloro-1H-indol-7-yl)-1-[(3-methyl-1,1-dioxo-thietan-3-yl)methyl]pyrazole-4-sulfonamide]: the pIC50 in test [1] is above 6.60. In addition, the negative logarithm of the EC50 (pEC50) in test [2] was 6.00 to 6.60.

On to `Cc1ccc(NS(=O)(=O)c2cnn(C3CCC3)c2)c2[nH]cc(C#N)c12` [Compound 61, N-(3-cyano-4-methyl-1H-indol-7-yl)-1-cyclobutyl-pyrazole-4-sulfonamide], for which, in test [1], the negative logarithm of the IC50 (pIC50) is above 6.60. In addition, the negative logarithm of the EC50 (pEC50) in test [2] is 6.00 to 6.60.

Regarding `N#Cc1c[nH]c2c(NS(=O)(=O)c3cnn([C@@H](CO)CF)c3)ccc(Cl)c12` [Compound 238, N-(4-chloro-3-cyano-1H-indol-7-yl)-1-[(1S)-1-(fluoromethyl)-2-hydroxy-ethyl]pyrazole-4-sulfonamide], the pIC50 in test [1] was above 6.60. Besides, in test [2], the negative-log EC50 (pEC50) was 6.00 to 6.60.

Take `Cc1ccc(NS(=O)(=O)c2cnn(C(C)(C)CCO)c2)c2[nH]cc(C#N)c12` [Compound 229, N-(3-cyano-4-methyl-1H-indol-7-yl)-1-(4-hydroxy-2-methylbutan-2-yl)-1H-pyrazole-4-sulfonamide]: in test [1], the pIC50 was above 6.60. In addition, in test [2], the pEC50 was above 6.60.

Consider `Cc1ccc(NS(=O)(=O)c2cnn(C(C)(C)CC(C)(C)O)c2)c2[nH]cc(C#N)c12` [Compound 231, N-(3-cyano-4-methyl-1H-indol-7-yl)-1-(3-hydroxy-1,1,3-trimethyl-butyl)pyrazole-4-sulfonamide], for which the negative logarithm of the IC50 (pIC50) in test [1] was above 6.60. The pEC50 in test [2] was above 6.60.

Turning to `N#Cc1c[nH]c2c(NS(=O)(=O)c3cnn(CC4(F)CNC4)c3)ccc(Cl)c12` [Compound 256, N-(4-chloro-3-cyano-1H-indol-7-yl)-1-[(3-fluoroazetidin-3-yl)methyl]pyrazol-4-sulfonamide], in test [1], the negative logarithm of the IC50 (pIC50) is above 6.60. Further, the negative logarithm of the EC50 (pEC50) in test [2] was below 6.00.

As to `Cc1ccc(NS(=O)(=O)c2cnn(CC3(C#N)CC3)c2)c2[nH]cc(C#N)c12` [Compound 145, N-(3-cyano-4-methyl-1H-indol-7-yl)-1-((1-cyanocyclopropyl)methyl)-1H-pyrazole-4-sulfonamide], the negative logarithm of the IC50 (pIC50) in test [1] was above 6.60. In test [2], the negative logarithm of the EC50 (pEC50) was 6.00 to 6.60.

On to `C[C@@H](CO)n1cc(S(=O)(=O)Nc2ccc(F)c3c(C#N)c[nH]c23)cn1` [Compound 267, N-(3-cyano-4-fluoro-1H-indol-7-yl)-1-[(1S)-2-hydroxy-1-methyl-ethyl]pyrazole-4-sulfonamide], for which the negative-log IC50 (pIC50) in test [1] is above 6.60. Further, in test [2], the negative logarithm of the EC50 (pEC50) was 6.00 to 6.60.

For the compound `N#Cc1c[nH]c2c(NS(=O)(=O)c3c[nH]nc3N)ccc(F)c12` [Compound 300, 3-amino-N-(3-cyano-4-fluoro-1H-indol-7-yl)-1H-pyrazole-4-sulfonamide], the negative logarithm of the IC50 (pIC50) in test [1] is above 6.60. Further, in test [2], the negative logarithm of the EC50 (pEC50) is below 6.00.
